Laboratory results: patent US11273124B2, “Antifungal nanoparticles for targeted treatment of fungal infections” (priority 2019, dated 2022)
Values after ≈ are worked out from the molar mass of the structure shown. “Also recorded” adds a separate entry of the source. Numbered stars: 1 amine (or outer) side, 2 acyl side, 3 side chain; on linkers, the order of the positions; unused ones are H or OH. Bridge positions count the residues as written; N and C are the ends. Square brackets hold non-standard residues; d marks the D form. Peptide text beside a SMILES is read from it. * marks the point of attachment. pTerphenylCO(4''-OnC5H11) = CCCCCOc1ccc(-c2ccc(-c3ccc(C(=O)*)cc3)cc2)cc1; Orn(4R-OH,5R-OH) = O=C([C@H](C[C@@H](O)[C@@H](O)N[*:3])N[*:1])[*:2]; hTyr(3S-OH,4S-OH) = N[C@H](C(=O)O)[C@H](O)[C@@H](O)c1ccc(O)cc1; Pro(3S-OH,4S-Me) = C[C@H]1CN[C@H](C(=O)O)[C@H]1O; Hyp = O=C(O)[C@@H]1C[C@@H](O)CN1

Tests used:
human cells = details: compared to many other antifungals; cited from earlier work
[1] = cited from earlier work
[2] = tested on: Candida albicans 10231 biofilms; experiment: Pre-formed biofilm treatment assay (microscopy, CFU, metabolic activity); type: cell-based; details: liposomes at 1.25 mg/mL or equivalent free drug; twenty-four hours
From the text: (a) A set of representative differential interference contrast microscopy images of Candida albicans 10231 biofilms after twenty-four hours of treatment with 1×, 5×, and 10× anidulafungin loaded liposomes or equivalent free drug. (b) A bar graph showing Candida albicans 10231 biofilm colony-forming units (CFU) twenty-four hours after treatment with 1×, 5×, and 10× anidulafungin loaded liposomes or equivalent free drug (**p<0.01, unpaired two-tailed t-test, n=4). (c) A bar graph showing relative metabolic activity of Candida albicans 10231 biofilm cells twenty-four hours after treatment with 1×, 5×, and 10× anidulafungin loaded liposomes or equivalent free drug (*p<0.05, **p<0.01, ***p<0.001, ****p<0.0001, one-way ANOVA with Tukey's post hoc analysis, n=4). […] of untreated cells are shown. Negative controls lacking fungi were included in each study.
The inventors compared anidulafungin-loaded liposomes with AmBisome®, a commercially-available liposomal amphotericin B, for activity against Candida albicans 10231 biofilms. AmBisome® localizes to the fungal cell wall. See, Adler-Moore & Proffitt, Journal of Antimicrobial Chemotherapy, 49(1), 21-30 (2002) and Walker et al., mBio, 9(1), e02383-17 (2018). The anidulafungin-loaded liposomes performed as AmBisome®, reducing fungal burden by five-fold after only twenty-four hours. See, FIG. 4. […]

Candida albicans = details: cited from earlier work
Candida parapsilosis = details: cited from earlier work

CCCCCOc1ccc(-c2ccc(-c3ccc(C(=O)N[C@H]4C[C@@H](O)[C@@H](O)NC(=O)[C@@H]5[C@@H](O)[C@@H](C)CN5C(=O)[C@H]([C@@H](C)O)NC(=O)[C@H]([C@H](O)[C@@H](O)c5ccc(O)cc5)NC(=O)[C@@H]5C[C@@H](O)CN5C(=O)[C@H]([C@@H](C)O)NC4=O)cc3)cc2)cc1 [Anidulafungin, 1-[(4R,5R) 4,5-dihydroxy-N2-[[4″-(pentyloxy)[1,1′:4′,1″-terphenyl]-4-yl]carbonyl]-L-ornithine] echinocandin B] ({pTerphenylCO(4''-OnC5H11)}-[Orn(4R-OH,5R-OH)]T[Hyp][hTyr(3S-OH,4S-OH)]T[Pro(3S-OH,4S-Me)]; lactam 1-C)
toxicity to human cells (human cells): reduced toxicity to human cells
solubility in ethanol ([1]; ethanol): slightly soluble
solubility in water ([1]; water): practically insoluble; also recorded: not freely soluble
metabolic activity compared to untreated controls [2]: did not reduce metabolic activity
minimum inhibitory concentration (MIC) (Candida albicans): 0.25 mg/L (≈ 0.219 µM)
minimum inhibitory concentration (MIC) (Candida parapsilosis): 4 mg/L (≈ 3.51 µM)
